Results on seven molecules are retold here after US7880007B2, “Bicyclic substituted phenyl piperidine modulators of muscarinic receptors” (Vertex Pharmaceuticals Incorporated, priority 2004, dated 2011).

What all share (assay type): cell-based
One experiment concerns the target T1, M1 muscarinic receptor (Homo sapiens, UniProt P11229).
T1 construct: expressed in transfected cells; host or cells: CHO (M1-CHO)
T1 sequence (P11229 1-460): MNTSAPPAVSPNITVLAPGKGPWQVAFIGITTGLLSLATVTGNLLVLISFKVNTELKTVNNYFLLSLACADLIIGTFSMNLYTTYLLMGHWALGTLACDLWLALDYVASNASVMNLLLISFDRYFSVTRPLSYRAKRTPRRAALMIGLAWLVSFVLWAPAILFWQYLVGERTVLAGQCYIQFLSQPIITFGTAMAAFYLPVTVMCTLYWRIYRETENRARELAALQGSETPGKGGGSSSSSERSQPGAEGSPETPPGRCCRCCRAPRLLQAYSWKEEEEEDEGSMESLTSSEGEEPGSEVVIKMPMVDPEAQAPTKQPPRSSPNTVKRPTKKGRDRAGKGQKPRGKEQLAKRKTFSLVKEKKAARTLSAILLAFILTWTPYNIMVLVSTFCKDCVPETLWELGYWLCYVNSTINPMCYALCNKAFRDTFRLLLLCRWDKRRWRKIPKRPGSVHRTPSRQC
The experiment can be described thus: Functional mobilization of intracellular calcium (FLIPR), M1-CHO cells. To be noted: for M1 Activity: M1-CHO cells, calcium mobilization (FLIPR). The method in brief:
(§1)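 CHO cells expressing human M1–M4 receptors loaded with Fluo-3 AM or Calcium 3 dye (1 mM probenecid, pH 7.4); 0.5% DMSO final. Agonist mode: compound added directly; antagonist mode: 15 min pre-incubation or co-application, then carbachol at EC80. Fluorescence read 60 s on FLIPR; efficacy relative to carbachol maximum.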

In a further experiment the target is T2, M2 muscarinic receptor (Homo sapiens, UniProt P08172).
T2 construct: expressed in transfected cells; host or cells: CHO (M2-CHO)
T2 sequence (P08172 1-466): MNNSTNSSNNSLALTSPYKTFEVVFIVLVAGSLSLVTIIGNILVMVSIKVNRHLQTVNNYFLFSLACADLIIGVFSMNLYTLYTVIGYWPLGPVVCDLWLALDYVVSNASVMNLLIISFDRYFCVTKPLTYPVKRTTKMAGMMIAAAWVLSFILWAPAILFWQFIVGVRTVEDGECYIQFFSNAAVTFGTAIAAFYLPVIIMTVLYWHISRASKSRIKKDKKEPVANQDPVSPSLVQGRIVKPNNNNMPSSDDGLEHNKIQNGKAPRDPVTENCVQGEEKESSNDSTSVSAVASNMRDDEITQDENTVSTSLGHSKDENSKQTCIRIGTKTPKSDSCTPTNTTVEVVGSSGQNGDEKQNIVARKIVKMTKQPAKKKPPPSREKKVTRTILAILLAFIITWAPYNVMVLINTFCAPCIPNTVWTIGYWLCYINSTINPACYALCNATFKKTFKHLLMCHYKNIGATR
Briefly: Functional mobilization of intracellular calcium (FLIPR), M2-CHO cells. To be noted: for M2 Activity: M2-CHO cells, calcium mobilization (FLIPR). The method in brief:
as §1

The target of another experiment is T3, M3 muscarinic receptor (Homo sapiens, UniProt P20309).
T3 construct: expressed in transfected cells; host or cells: CHO (M3-CHO)
The experiment can be described thus: Functional mobilization of intracellular calcium (FLIPR), M3-CHO cells. To be noted: for M3 Activity: M3-CHO cells, calcium mobilization (FLIPR). The procedure: Functional Mobilization of Intracellular Calcium to Determine Muscarinic Receptor Activity:
CHO cells expressing muscarinic receptors (M1 to M5) are grown as monolayers in tissue culture flasks at 37° C. in a humidified atmosphere containing 5% CO2 and passaged every 3-5 days. The growth media is Dulbecco's modified eagles medium (DMEM, Gibco Cat #12430-054), containing 25 mM Hepes and supplemented with Fetal Bovine Serum (Hyclone, cat #SH30071.03), 0.1 mM of MEM non-essential amino acids (GIBCO, Cat #11140-050), 1 mM MEM Sodium Pyruvate (GIBCO Cat #11360-070) and 100 units/ml of Penicillin G and 100 μg/ml of Streptomycin (GIBCO Cat #15140-122). The recombinant muscarinic receptor cell lines are grown under antibiotic pressure with media containing 25 μg/ml zeocin and 500 μg/ml G418 (M1-CHO), 4 μg/ml puromycin, 50 μg/ml zeocin and 2.5 μg/ml blasticidin (M2 and M4-CHO) or 50 μg/ml zeocin and 4 μg/ml puromycin (M3 and M5-CHO).
Cells are harvested at 80-90% confluence using Versene (GIBCO Cat #15040-066), collected by centrifugation and seeded 18-24 hrs prior to running the calcium assay at a density of 5,000-10,000 cells/well in […], clear-bottomed 384-well plates (BD Biocoat, poly-D-lysine, Cat #356663). The day of the experiment, the cells are washed with a plate washer (Bioteck Instruments, ELX 405) using bath 1 buffer (140-mM NaCl, 4.5-mM KCl, 2-mM CaCl2, 1-mM MgCl2, 10-mM Hepes-Na, 10-mM Glucose, pH 7.4, with NaOH) containing 1 mM Probenecid. Next, the calcium dye Fluo-3 (25 μl/well of Fluo-3 AM at 4 μM, Molecular Probes F-1241, in Bath 1 buffer containing 1 mM Probenecid) is added to the 25 μl of Bath 1 remaining in each well after the plate wash and the dye is loaded at 37° C. in the tissue culture incubator for 60-90 min. The fluorescent dye is removed using the plate washer with Bath 1 containing 1 mM Probenecid, leaving 25 μl/well of this solution after the wash. Alternatively, cells can be loaded with the calcium indicator from Molecular Devices (Calcium 3 Assay Reagents, Cat #R7181) adding 5 μl of a 5× solution dye in Bath 1 containing 1 mM Probenecid (10 ml per dye flask cat #R7182 to generate a solution 20×) to 20 μl of the same buffer. After loading for 60 min, the experiment can be run without having to remove the dye.
Compounds are prepared at a 2× fold concentration in a 96-well plate (round bottom, Costar Corning cat #3656), by reconstituting the pre-spotted compounds in bath 1 containing 1 mM probenecid. The final concentration DMSO is 0.5%, and the amount of DMSO is normalized across the assay plate. To determine an agonist action of the compounds on muscarinic receptors, the reconstituted compounds are added (25 μl compound/well) to the cell assay plate (containing 25 μl/well) using the multi-channel robotic system of the FLIPR 3 Instrument (Molecular Devices, Sunnyvale, Calif.). To determine a functional inhibitory action of the compounds on muscarinic receptors, the reconstituted compounds are added (25 μl compound/well) to the assay plate and pre-incubated for 15 min prior to adding 25 μl of Carbachol at 3× the EC80 for each muscarinic subtype. Alternatively, the compounds can be co-applied simultaneously with the agonist. In both assay modes, the fluorescence is recorded for 60 sec (excitation wavelength is […] and emission wavelength 540 nm) using the FLIPR 3 instrument.
The potency, efficacy and selectivity of the muscarinic compounds were evaluated by screening the compound activity across the whole family (M1 to M5 cells). Compounds were also screened for activity on other proteins such as other GPCRs and ion channels to determine selectivity on M4 receptors.
Examples of activities and efficacies of the muscarinic compounds of formulae (I, Ia, Ib, and II) on modulating M1, M2, M3 and M4 receptors are shown below in Table 3. […]

The target of another experiment is T4, M4 muscarinic receptor (Homo sapiens, UniProt P08173).
T4 construct: expressed in transfected cells; host or cells: CHO (M4-CHO)
T4 sequence (P08173 1-479): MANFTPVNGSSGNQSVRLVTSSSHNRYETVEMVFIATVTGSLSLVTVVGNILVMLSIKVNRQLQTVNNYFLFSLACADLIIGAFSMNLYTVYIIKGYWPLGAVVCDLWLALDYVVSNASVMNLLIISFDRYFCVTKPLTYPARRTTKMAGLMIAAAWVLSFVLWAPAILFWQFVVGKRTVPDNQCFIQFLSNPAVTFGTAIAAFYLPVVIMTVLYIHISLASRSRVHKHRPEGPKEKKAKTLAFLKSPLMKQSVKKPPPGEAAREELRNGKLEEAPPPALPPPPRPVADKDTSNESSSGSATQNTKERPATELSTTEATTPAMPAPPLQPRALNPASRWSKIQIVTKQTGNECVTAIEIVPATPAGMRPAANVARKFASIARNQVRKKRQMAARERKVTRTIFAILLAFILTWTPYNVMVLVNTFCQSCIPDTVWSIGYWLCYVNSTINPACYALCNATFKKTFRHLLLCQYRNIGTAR
The experiment can be described thus: Functional mobilization of intracellular calcium (FLIPR), M4-CHO cells. The settings on record: for M4 Activity: M4-CHO cells, calcium mobilization (FLIPR). The method in brief:
as §1
On the technique in general: Calcium flux is commonly read through the fluorescence of an indicator in the cells.

Setting [1] is: 100% efficacy is the maximum response obtained with the Carbachol control.
Where [2] appears, read: 100% efficacy = maximum response obtained with the Carbachol control.

Structures are written as SMILES.

T3 sequence (P20309 whole entry): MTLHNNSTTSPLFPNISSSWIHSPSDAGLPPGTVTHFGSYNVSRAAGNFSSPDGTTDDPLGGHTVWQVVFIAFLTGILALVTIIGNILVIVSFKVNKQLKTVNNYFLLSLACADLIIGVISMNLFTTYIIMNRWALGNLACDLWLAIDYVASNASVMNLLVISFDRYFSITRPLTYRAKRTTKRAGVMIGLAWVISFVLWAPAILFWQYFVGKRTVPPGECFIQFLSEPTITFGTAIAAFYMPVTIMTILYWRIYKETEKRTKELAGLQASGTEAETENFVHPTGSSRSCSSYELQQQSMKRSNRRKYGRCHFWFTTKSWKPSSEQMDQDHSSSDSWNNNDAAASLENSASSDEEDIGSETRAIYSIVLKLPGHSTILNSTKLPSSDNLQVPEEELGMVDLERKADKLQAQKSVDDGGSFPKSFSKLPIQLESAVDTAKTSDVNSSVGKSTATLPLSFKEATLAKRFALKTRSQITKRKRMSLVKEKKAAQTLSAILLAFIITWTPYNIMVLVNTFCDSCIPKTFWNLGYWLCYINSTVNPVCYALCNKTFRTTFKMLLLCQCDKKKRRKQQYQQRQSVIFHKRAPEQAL

What is called Emax is the size of the effect at its maximum, as opposed to the concentration needed. For `COc1ccc(Cl)cc1C1(O)CCN(C[C@H]2C[C@H]3C=C[C@H]2C3)CC1` [Compound 394], the Emax at M1 muscarinic receptor (setting [1]) was < 25%; at M2 muscarinic receptor (setting [1]), 25 to 100%; at M3 muscarinic receptor (setting [1]) it was < 25%; on M4 muscarinic receptor (setting [1]), 25 to 100%. Also, the “M1 Activity” value at M1 muscarinic receptor is “+ (activity was measured to be greater than 5.0 μM)”. The “M2 Activity” value at M2 muscarinic receptor is reported as “+ (activity was measured to be greater than 5.0 μM)”. In addition, the “M3 Activity” value at M3 muscarinic receptor is given as “+ (activity was measured to be greater than 5.0 μM)”. Moreover, the “M4 Activity” value at M4 muscarinic receptor is given as “+++ (activity was measured to be less than 1.0 μM)”.

As for `CCOC(=O)N1CCC(CN2CCC(c3cccc4c3OCO4)CC2)CC1` [Compound 217], the Emax on M1 muscarinic receptor (setting [2]) was 25 to 100%; on M2 muscarinic receptor (setting [2]), < 25%; on M3 muscarinic receptor (setting [2]) it was < 25%; at M4 muscarinic receptor (setting [2]), 25 to 100%. Moreover, the “M1 Activity” value at M1 muscarinic receptor was “+++ (activity was measured to be less than 1.0 μM)”. Besides, the “M2 Activity” value at M2 muscarinic receptor is “+ (activity was measured to be greater than 5.0 μM)”. In addition, at M3 muscarinic receptor, the “M3 Activity” value is on record as “++ (activity was measured to be from 1.0 μM to 5.0 μM)”. The “M4 Activity” value on M4 muscarinic receptor is reported as “+++ (activity was measured to be less than 1.0 μM)”.

With `COc1ccc(C)cc1C1CCN(C2C[C@H]3CC[C@H]2C3)CC1` (some centres unmarked) [Compound 51], the Emax at M1 muscarinic receptor (setting [2]) was 25 to 100%; at M2 muscarinic receptor (setting [2]), 25 to 100%; on M3 muscarinic receptor (setting [2]), < 25%; on M4 muscarinic receptor (setting [2]), 25 to 100%. The “M1 Activity” value on M1 muscarinic receptor is given as “++ (activity was measured to be from 1.0 μM to 5.0 μM)”. In addition, the “M2 Activity” value at M2 muscarinic receptor is “+ (activity was measured to be greater than 5.0 μM)”. The “M3 Activity” value on M3 muscarinic receptor is reported as “+ (activity was measured to be greater than 5.0 μM)”. The “M4 Activity” value at M4 muscarinic receptor is given as “+++ (activity was measured to be less than 1.0 μM)”.

Take `COc1cccc(-c2ccccc2C2CCN([C@H]3C[C@H]4CC[C@H]3C4)CC2)c1` [Compound 116]: the maximal effect (Emax) at M1 muscarinic receptor (setting [2]) was 25 to 100%; on M2 muscarinic receptor (setting [2]), < 25%; at M3 muscarinic receptor (setting [2]), < 25%; on M4 muscarinic receptor (setting [2]), 25 to 100%. In addition, the “M1 Activity” value at M1 muscarinic receptor is recorded as “+ (activity was measured to be greater than 5.0 μM)”. The “M2 Activity” value at M2 muscarinic receptor is on record as “+ (activity was measured to be greater than 5.0 μM)”. Also, on M3 muscarinic receptor, the “M3 Activity” value is recorded as “+ (activity was measured to be greater than 5.0 μM)”. The “M4 Activity” value on M4 muscarinic receptor is “++ (activity was measured to be from 1.0 μM to 5.0 μM)”.

Consider `COc1ccccc1C1CCN(C2CCC(c3ccccc3)CC2)CC1` (centres unmarked) [Compound 234], for which the Emax on M1 muscarinic receptor (setting [2]), on M2 muscarinic receptor (setting [2]), on M3 muscarinic receptor (setting [2]) and at M4 muscarinic receptor (setting [2]) was < 25% each time. Also, the “M1 Activity” value on M1 muscarinic receptor is given as “+ (activity was measured to be greater than 5.0 μM)”. In addition, the “M2 Activity” value on M2 muscarinic receptor is recorded as “+ (activity was measured to be greater than 5.0 μM)”. In addition, the “M3 Activity” value at M3 muscarinic receptor is listed as “+ (activity was measured to be greater than 5.0 μM)”. At M4 muscarinic receptor, the “M4 Activity” value is “+ (activity was measured to be greater than 5.0 μM)”.

For the molecule `COc1ccc(-c2ccc(C(N)=O)cc2)cc1C1CCN([C@H]2C[C@H]3CC[C@H]2C3)CC1` [Compound 407], the Emax is < 25% at M1 muscarinic receptor (setting [1]), < 25% at M2 muscarinic receptor (setting [1]), < 25% on M3 muscarinic receptor (setting [1]) and 25 to 100% on M4 muscarinic receptor (setting [1]). The “M1 Activity” value at M1 muscarinic receptor is on record as “+ (activity was measured to be greater than 5.0 μM)”. In addition, the “M2 Activity” value on M2 muscarinic receptor is recorded as “+ (activity was measured to be greater than 5.0 μM)”. At M3 muscarinic receptor, the “M3 Activity” value was “+ (activity was measured to be greater than 5.0 μM)”. Further, on M4 muscarinic receptor, the “M4 Activity” value was “+++ (activity was measured to be less than 1.0 μM)”.

`COc1ccc(C(=O)c2ccsc2)cc1C1CCN([C@H]2C[C@H]3CC[C@H]2C3)CC1` [Compound 230]: the Emax on M1 muscarinic receptor (setting [2]) was < 25%; at M2 muscarinic receptor (setting [2]), < 25%; at M3 muscarinic receptor (setting [2]), < 25%; at M4 muscarinic receptor (setting [2]) it was 25 to 100%. At M1 muscarinic receptor, the “M1 Activity” value is “+ (activity was measured to be greater than 5.0 μM)”. Also, on M2 muscarinic receptor, the “M2 Activity” value is recorded as “+ (activity was measured to be greater than 5.0 μM)”. In addition, the “M3 Activity” value at M3 muscarinic receptor is on record as “+ (activity was measured to be greater than 5.0 μM)”. For the same molecule, the “M4 Activity” value on M4 muscarinic receptor is listed as “+++ (activity was measured to be less than 1.0 μM)”.
